Data as given in patent US5393779A, “Chemical compounds” (Zeneca Limited, priority 1991, dated 1995).

Assays:
rat adipocytes = assay: Rat adipocyte lipolysis test; assay type: cell-based, rats; conditions: 1.5 h, rat epididymal adipocytes, 90 minutes, free fatty acids, isoprenaline 3×10^-6 M, read-out: Efficacy (maximal effect on lipolysis as a percentage of the maximal effect of isoprenaline)
Protocol: Epididymal adipose tissue was excised from male rats and adipocytes prepared by digestion with collagenase. Cells were isolated by flotation and washed four times with Krebs Ringer Bicarbonate buffer (KRB), finally washing in KRB containing 2% bovine serum albumin (KRB/BSA). Aliquots of the cell suspension were incubated in the presence of a range of concentrations of the test compound in a total volume of 1 ml KRB/2% BSA containing 0.1 mg/ml ascorbate in an atmosphere of 95%O2,5%CO2. Incubations were also carried out in the presence of a concentration of isoprenaline (3×10^-6 M) known to have a maximal effect on lipolysis. Control incubations were carried out in KRB/2% BSA containing ascorbate. The incubations were terminated after 90 minutes by placing the tubes on ice, and aliquots of infranatant removed for assay of free fatty acids which were measured using a WAKO NEFA-C assay kit (Alpha Laboratories). Lipolytic activity of the compounds was assessed by determining the increase in free fatty acid concentrations caused by the compounds compared to controls. The maximal effects (efficacy) of the compounds were determined and expressed as percentage of the maximal effect of isoprenaline.
Efficacy is the maximal effect of the test compound on lipolysis expressed as a percentage of the maximal effect of isoprenaline.

Rats [1] = assay: Test (c): metabolic rate by closed-circuit oxygen consumption in rats; assay type: in vivo; conditions: 1mgkg^-1 p.o.
Protocol: (c) Rats are kept at 23° C. for at least two days, then fasted overnight. On the following day, the basal metabolic rate of the animals is determined using a close-circuit oxygen consumption apparatus of the type described by Arundel et al., 1984, J. Appl. Physiol. Respirat. Environ. Exercise Physiol., 1984, 57 (5) 1591-1593. The rats are then dosed (orally) with test compound at about 1 mgkg^-1 as a solution or suspension in 0,025% w/v Polysorbate 80 (0.5 ml/100 g). Metabolic rate is then determined for at least one hour after dosing. Compounds are considered active in this test if they cause a significant increase in metabolic rate as compared to control animals (Student's t test: p <0.05) dosed only the solution or suspension vehicle.

Rats [2] = assay: Test (b): heart rate in rats, D500 dose and selectivity index (SI); assay type: in vivo
Protocol: (b) Rats are adapted to a thermoneutral environment (29° C.) for 2 weeks in order to decrease their capacity for BAT mediated non-shivering thermogenesis. During the final 5 days the animals are trained to use an apparatus for measuring heart rate non-invasively via foot-pad electrodes connected to an ECG integrator giving a continuous read-out of heart rate. A test compound is administered sub-cutaneously or orally at the ED50 determined in test (a), and heart rate is determined 15-30 minutes after dosing. The procedure is then repeated in subsequent tests using increasing multiples of the ED50 determined in test (a) until the heart rate (HR) reaches or exceeds 500 beats per minute, or until the dose reaches 100 times the ED50 determined in test (a). The dose necessary to produce a heart rate of 500 beats per minute (D500 dose) is estimated.
The ratio of D500 to ED50 in test (a) can be defined as the selectivity index (SI) and provides a measure of the selectivity of the compound for BAT as opposed to the cardiovascular system.

C57BL/KsJ (db/db) mice = assay: Effects on blood glucose levels in insulin resistant db/db mice; assay type: in vivo; conditions: 50 mg/kg diet
Protocol: Effects on blood glucose levels in insulin resistant db/db mice C57BL/KsJ (db/db) mice were divided into two groups and allowed free access to control diet or diet containing the compound of Example 1 at a concentration of 50 mg/kg diet. A group of control (+/+) mice was also included in the experiment. After 16 days treatment, blood samples were taken from the mice for determination of blood glucose levels.
Results are mean±S.E.M. of observations in groups of 15 mice. Student's t test was used to test the significance of the difference between control (+/+) and treated (db/db) groups.

[3] = test system: brown adipose tissue (BAT) mitochondria; assay: Test (a): GDP binding in BAT mitochondria of cold-adapted rats as a measure of thermogenic activation; assay type: in vivo; conditions: BAT removed one hour after dosing; for ED50: Rattus norvegicus, 1 h, oral, relative to isoprenaline 1 mgkg^-1, read-out: oral ED50 (dose producing 50% of the isoprenaline effect on GDP binding)
Protocol: (a) Rats are cold adapted at 4° C. for 5 days to increase their capacity for thermogenesis. They are then transferred to a warm environment of 25° C. for 2 days. On the following day, a test compound is administered sub-cutaneously or orally. Animals are sacrificed one hour later and the interscapular, brown adipose tissue (BAT) pad is removed. BAT mitochondria are prepared by differential centrifugation and GDP binding is determined (Holloway et al., International Journal of Obesity, 1984, 8, 295) as a measure of thermogenic activation. Each test includes a control which is dosed with the solution/suspension vehicle only and a positive control which is dosed with isoprenaline (as its sulphate) at 1 mgkg^-1. Test compounds are routinely dosed at 0.1, 0.3, 1.0, 3.0, and 10 […] and results expressed in terms of the effect on GDP binding produced by the positive control. […] Compounds are considered active in this test if they cause a significant elevation in GDP binding as compared to controls.

Male rats = assay: Oral glucose tolerance test; assay type: in vivo; conditions: for Plasma glucose: 5 mg/Kg p.o., mean±S.E.M., six rats
Protocol: Male rats (125-150 g) were fasted for 24 hours. After fasting, a group of six rats was anaesthetised and a cardiac blood sample taken. Other groups of rats were then dosed with the compound of Example 1 (5.0 mg/Kg p.o.) dissolved in an aqueous solution of 0.025% polysorbate. Control rats were dosed with polysorbate solution alone. The volume of solution dosed was 0.5 ml/100 g body weight. 60 minutes subsequent to dosing six control and six treated rats were anaesthetised and cardiac samples taken. The remaining rats were given an oral glucose load (1 g/Kg) dosed as a 20% solution of D-glucose (0.5 ml/100 g). Groups of six rats for each control and treatment were then anaesthetised and bled at 20, 60 and 120 minutes after the glucose load. Plasma glucose and insulin were determined using standard methods.
The results are mean±S.E.M. of observations in six rats in each group. Student's t test was used to test the significance of the difference between control and treated groups.

O=C(O)COc1ccc(OCCNCC(O)COc2ccccc2)cc1 (stereo not drawn) [4-[2-(2-Hydroxy-3-phenoxypropylamino)-ethoxy]phenoxyacetic acid, reference compound]
Emax (rat adipocytes): 26%

O=C(O)Cc1ccc(OCCNC[C@H](O)c2ccccc2)cc1 [Example 1, (R)-4-[2-(2-Hydroxy-2-phenylethylamino)ethoxy]phenylacetic acid]
metabolic rate (oxygen consumption) (Rats [1]): 6.53 ml O2 min^-l (Kg^O.75)
SI (selectivity index, ratio of D500 to ED50 in test (a)) (Rats [2]; oral): > 50
effect on blood glucose levels (in words) (C57BL/KsJ (db/db) mice; 16 days): normalises blood glucose levels
Blood glucose (C57BL/KsJ (db/db) mice; after 16 days treatment, mean±S.E.M., 15 mice): 5.3 ± 0.46 mM
oral ED50 (dose producing 50% of the isoprenaline effect on GDP binding) ([3]; relative to isoprenaline 1 mgkg^-1): 0.55 mgkg^-1
ED50 [3]: 0.55 mg/kg
Emax (rat adipocytes): 100%
Plasma glucose (Male rats; 0 mins relative to oral glucose load): 3.52 ± 0.07 mM
Plasma glucose (Male rats; 20 mins after oral glucose load (1 g/Kg)): 5.72 ± 0.24 mM
Plasma glucose (Male rats; 60 mins after oral glucose load (1 g/Kg)): 5.32 ± 0.24 mM
Plasma glucose (Male rats; 120 mins after oral glucose load (1 g/Kg)): 5.43 ± 0.31 mM
antihyperglycaemic activity (in words) (Male rats; 5.0 mg/Kg p.o., rats): marked antihyperglycaemic activity

O=C(O)COc1ccc(OCCNCC(O)c2ccccc2)cc1 (stereo not drawn) [4-[2-(2-Hydroxy-2-phenylethylamino)-ethoxy]phenyloxyacetic acid, reference compound]
ED50 [3]: > 3 mg/kg

CC(C)NCC(O)c1ccc(O)c(O)c1 (stereo not drawn) [isoprenaline, reference compound]
SI (selectivity index, ratio of D500 to ED50 in test (a)) (Rats [2]; route not stated): 0.06
